Test results published in the supplement of paper PMC8617591.

How the values were obtained:
[1] = tested on: Mycobacterium tuberculosis Erdman (autoluminescent); assay: total FIC50 (Loewe) at 50% inhibition, three-drug combination (log2); higher = more antagonistic
Experimental: (§1)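 DiaMOND equipotent three-drug combination dose responses (10 doses, 1.5- or 2-fold spacing, centred on IC90) against autoluminescent M. tuberculosis Erdman in 8 in vitro models. Read-out is OD600, or luminescence for the intracellular and dormancy models, normalised to untreated wells. Hill-fit Einf, AUC25 and GRinf are potency metrics; FIC50 and FIC90 are total Loewe fractional inhibitory concentrations as log2 (negative = synergy).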

[2] = tested on: Mycobacterium tuberculosis Erdman (autoluminescent); assay: total FIC90 (Loewe) at 90% inhibition, three-drug combination (log2); higher = more antagonistic
Experimental: as §1

[3] = tested on: Mycobacterium tuberculosis Erdman (autoluminescent); assay: Einf, fitted maximum growth inhibition of three-drug combination (fraction); higher = stronger maximal inhibition
Experimental: as §1

[4] = tested on: Mycobacterium tuberculosis Erdman (autoluminescent); assay: AUC25, normalised area under dose response up to IC25 (three-drug combination) (fraction (0-1)); higher = more potent at low dose
Experimental: as §1

[5] = tested on: Mycobacterium tuberculosis Erdman (autoluminescent); assay: GRinf, maximum normalised growth rate inhibition (three-drug combination) (unitless (-1 to 1)); higher = less effect (negative = killing)
Experimental: as §1

COc1nc2ccc(Br)cc2cc1[C@@H](c1ccccc1)[C@@](O)(CCN(C)C)c1cccc2ccccc12 [bedaquiline] + CC(=O)NC[C@H]1CN(c2ccc(N3CCOCC3)c(F)c2)C(=O)O1 [linezolid] + NC(=O)c1cnccn1 [pyrazinamide]
Conditions | AUC25, [4] | Einf, [3] | GRinf, [5] | total FIC50, [1] | total FIC90, [2]
in vitro model: acidic pH 5.7, time point: constant (~7 days, model-specific) | 0.076 | 0.806 | -0.494 | 0.125 | –
in vitro model: acidic pH 5.7, time point: terminal (~4-5 doublings, model-specific) | 0.0793 | 0.981 | -0.392 | 0.681 | 0.133
in vitro model: intracellular J774, time point: constant = terminal | – | 0.928 | -0.132 | – | 0.532

Conditions | AUC25, [4] | Einf, [3] | GRinf, [5] | total FIC50, [1] | total FIC90, [2]
in vitro model: butyrate, time point: constant (~7 days, model-specific) | 0.101 | 0.947 | -0.127 | -0.0949 | 0.0532
in vitro model: butyrate, time point: terminal (~4-5 doublings, model-specific) | 0.0821 | 0.975 | -0.116 | -0.166 | 0.0226
in vitro model: cholesterol 0.05 mM, time point: constant (~7 days, model-specific) | 0.142 | 0.767 | -0.355 | – | –
in vitro model: cholesterol 0.05 mM, time point: terminal (~4-5 doublings, model-specific) | 0.141 | 0.969 | -0.491 | 0.0813 | –
in vitro model: cholesterol-high 0.2 mM, time point: constant (~7 days, model-specific) | 0.109 | 0.967 | -0.577 | 0.197 | –
in vitro model: cholesterol-high 0.2 mM, time point: terminal (~4-5 doublings, model-specific) | 0.105 | 1 | -0.793 | 0.121 | 0.311
in vitro model: dormancy (butyrate + nitrate, low O2), time point: constant (~7 days, model-specific) | 0.0774 | 0.92 | 0.268 | -0.772 | -0.755
in vitro model: dormancy (butyrate + nitrate, low O2), time point: terminal (~4-5 doublings, model-specific) | 0.0469 | 0.989 | -0.0748 | -0.0476 | -0.67
in vitro model: standard 7H9 glycerol, time point: constant = terminal | 0.0828 | 0.934 | -0.00964 | 0.406 | –
in vitro model: valerate, time point: constant (~7 days, model-specific) | 0.0833 | 0.886 | -0.102 | 0.362 | –
in vitro model: valerate, time point: terminal (~4-5 doublings, model-specific) | 0.0634 | 0.942 | -0.069 | 0.455 | 0.406

COc1nc2ccc(Br)cc2cc1[C@@H](c1ccccc1)[C@@](O)(CCN(C)C)c1cccc2ccccc12 [bedaquiline] + CC(=O)NC[C@H]1CN(c2ccc(N3CCOCC3)c(F)c2)C(=O)O1 [linezolid] + O=[N+]([O-])c1cn2c(n1)OC[C@@H](OCc1ccc(OC(F)(F)F)cc1)C2 [pretomanid]
Conditions | AUC25, [4] | Einf, [3] | GRinf, [5] | total FIC50, [1] | total FIC90, [2]
in vitro model: acidic pH 5.7, time point: constant (~7 days, model-specific) | 0.118 | 0.937 | -0.508 | 0.414 | –
in vitro model: acidic pH 5.7, time point: terminal (~4-5 doublings, model-specific) | 0.0812 | 0.992 | -0.56 | 0.58 | 0.474
in vitro model: intracellular J774, time point: constant = terminal | – | 0.99 | -0.78 | – | 1.25

Conditions | AUC25, [4] | Einf, [3] | GRinf, [5] | total FIC50, [1] | total FIC90, [2]
in vitro model: butyrate, time point: constant (~7 days, model-specific) | 0.105 | 0.943 | -0.119 | 0.731 | 1.49
in vitro model: butyrate, time point: terminal (~4-5 doublings, model-specific) | 0.0754 | 0.97 | -0.0976 | 0.645 | 0.887
in vitro model: cholesterol 0.05 mM, time point: constant (~7 days, model-specific) | 0.136 | 0.738 | -0.284 | 0.169 | –
in vitro model: cholesterol 0.05 mM, time point: terminal (~4-5 doublings, model-specific) | 0.141 | 0.962 | -0.303 | 0.274 | 0.577
in vitro model: cholesterol-high 0.2 mM, time point: constant (~7 days, model-specific) | 0.112 | 0.948 | -0.376 | 0.197 | –
in vitro model: cholesterol-high 0.2 mM, time point: terminal (~4-5 doublings, model-specific) | 0.115 | 1 | -0.834 | -0.088 | 0.591
in vitro model: dormancy (butyrate + nitrate, low O2), time point: constant (~7 days, model-specific) | 0.0459 | 0.92 | 0.23 | -0.22 | -0.616
in vitro model: dormancy (butyrate + nitrate, low O2), time point: terminal (~4-5 doublings, model-specific) | 0.0294 | 0.988 | -0.115 | -0.261 | -1.1
in vitro model: standard 7H9 glycerol, time point: constant = terminal | 0.0809 | 0.955 | -0.108 | 0.296 | 0.191
in vitro model: valerate, time point: constant (~7 days, model-specific) | 0.139 | 0.929 | -0.172 | 0.447 | 1.63
in vitro model: valerate, time point: terminal (~4-5 doublings, model-specific) | 0.115 | 0.958 | -0.132 | 0.00392 | 1.32

COc1nc2ccc(Br)cc2cc1[C@@H](c1ccccc1)[C@@](O)(CCN(C)C)c1cccc2ccccc12 [bedaquiline] + CC(C)/N=c1\cc2n(-c3ccc(Cl)cc3)c3ccccc3nc-2cc1Nc1ccc(Cl)cc1 [clofazimine] + CC(=O)NC[C@H]1CN(c2ccc(N3CCOCC3)c(F)c2)C(=O)O1 [linezolid]
Conditions | AUC25, [4] | Einf, [3] | GRinf, [5] | total FIC50, [1] | total FIC90, [2]
in vitro model: acidic pH 5.7, time point: constant (~7 days, model-specific) | 0.0792 | 0.874 | -0.465 | 0.0418 | –
in vitro model: acidic pH 5.7, time point: terminal (~4-5 doublings, model-specific) | 0.0781 | 0.97 | -0.331 | 0.786 | 0.299
in vitro model: intracellular J774, time point: constant = terminal | – | 0.929 | -0.17 | – | 0.186

Conditions | AUC25, [4] | Einf, [3] | GRinf, [5] | total FIC50, [1] | total FIC90, [2]
in vitro model: butyrate, time point: constant (~7 days, model-specific) | 0.0701 | 0.947 | -0.105 | 0.0722 | -0.55
in vitro model: butyrate, time point: terminal (~4-5 doublings, model-specific) | 0.0486 | 0.977 | -0.115 | 0.112 | -0.466
in vitro model: cholesterol 0.05 mM, time point: constant (~7 days, model-specific) | 0.14 | 0.769 | -0.304 | -0.461 | –
in vitro model: cholesterol 0.05 mM, time point: terminal (~4-5 doublings, model-specific) | 0.137 | 0.951 | -0.374 | -0.129 | -0.783
in vitro model: cholesterol-high 0.2 mM, time point: constant (~7 days, model-specific) | 0.0852 | 0.944 | -0.281 | -0.437 | -0.594
in vitro model: cholesterol-high 0.2 mM, time point: terminal (~4-5 doublings, model-specific) | 0.0962 | 0.999 | -0.488 | -0.195 | -0.484
in vitro model: dormancy (butyrate + nitrate, low O2), time point: constant (~7 days, model-specific) | 0.0703 | 0.913 | 0.219 | -0.36 | -0.911
in vitro model: dormancy (butyrate + nitrate, low O2), time point: terminal (~4-5 doublings, model-specific) | 0.0497 | 0.99 | -0.161 | -0.24 | -0.848
in vitro model: standard 7H9 glycerol, time point: constant = terminal | 0.0911 | 0.962 | -0.0979 | -0.27 | -0.871
in vitro model: valerate, time point: constant (~7 days, model-specific) | 0.134 | 0.931 | -0.127 | 0.0537 | -0.00887
in vitro model: valerate, time point: terminal (~4-5 doublings, model-specific) | 0.0869 | 0.944 | -0.0541 | 0.263 | 1.19
